From patent US11746102B2, “Polymorphs of selinexor” (Karyopharm Therapeutics Inc., priority 2014, dated 2023)

Experiment: Solubility assessment (visual) of selinexor in solvents and solvent mixtures
Type: physicochemical
Conditions: any of the MTBE:heptane mixtures investigated

O=C(/C=C\n1cnc(-c2cc(C(F)(F)F)cc(C(F)(F)F)c2)n1)NNc1cnccn1 [Selinexor, (Z)-3-(3-(3,5-bis(trifluoromethyl)phenyl)-1H-1,2,4-triazol-1-yl)-N′-(pyrazin-2-yl)acrylohydrazide]
Solubility: > 100 volumes
